Results published in ChEMBL document CHEMBL4330134, “Design, synthesis, and bioevaluation of a novel class of (E)-4-oxo-crotonamide derivatives as potent antituberculosis agents” (Bioorg Med Chem Lett, 2019).
≈ marks a conversion by molar mass, not a printed value.

Test system: Mycobacterium tuberculosis
Test: Antimycobacterial activity against miltidrug-resistant Mycobacterium tuberculosis
Assay type: functional

COC(=O)/C=C/C(=O)c1ccc(OC)cc1
MIC: 0.25 to 1 µg/mL (≈ 1.14 to 4.54 µM)
